Experimental data published in ChEMBL document CHEMBL3425465, “Synthesis, antimalarial and antitubercular activities of meridianin derivatives” (Eur J Med Chem, 2015).
Values after ≈ are worked out from the molar mass of the structure shown.

Key:
Assay type in all cases: functional
[1] = tested on: Mycobacterium tuberculosis; assay: Antitubercular activity against Rifampicin-resistant Mycobacterium tuberculosis assessed as parasite growth inhibition by REMA method
[2] = tested on: Mycobacterium tuberculosis; assay: Antitubercular activity against multidrug-resistant Mycobacterium tuberculosis assessed as parasite growth inhibition by REMA method
[3] = tested on: Mycobacterium tuberculosis; assay: Antitubercular activity against Isoniazid-resistant Mycobacterium tuberculosis assessed as parasite growth inhibition by REMA method
[4] = tested on: Mycobacterium tuberculosis; assay: Ratio of isoniazid IC50 to compound IC50 for Isoniazid-resistant Mycobacterium tuberculosis by REMA method

SMILES | MIC90 [1] [µM] | MIC90 [2] [µM] | MIC90 [3] [µM] | Ratio [4]
O=C1NC(c2c[nH]c3ccc(Br)cc23)Nc2ccccc21 (stereo not drawn) | 46.9 (≈ 16 µg/mL) | 188 (≈ 64.2 µg/mL) | 46.9 (≈ 16 µg/mL) | –
O=C1NC(c2c[nH]c3ccc(I)cc23)Nc2ccccc21 (stereo not drawn) | 5.2 (≈ 2.02 µg/mL) | 20.7 (≈ 8.06 µg/mL) | 10.3 (≈ 4.01 µg/mL) | >12
CC[C@@H](CO)NCCN[C@@H](CC)CO [ETHAMBUTOL] | – | 626 (≈ 128 µg/mL) | – | –
NNC(=O)c1ccncc1 [ISONIAZID] | – | 117 (≈ 16 µg/mL) | 467 (≈ 64.1 µg/mL) | –
CO[C@H]1/C=C/O[C@@]2(C)Oc3c(C)c(O)c4c(O)c(c(/C=N/N5CCN(C)CC5)c(O)c4c3C2=O)NC(=O)/C(C)=C\C=C\[C@H](C)[C@H](O)[C@@H](C)[C@@H](O)[C@@H](C)[C@H](OC(C)=O)[C@@H]1C [RIFAMPIN] | 311 (≈ 256 µg/mL) | 38.9 (≈ 32 µg/mL) | 0.07 (≈ 0.0576 µg/mL) | –
